Data taken from US12503432B2, “Ionizable lipids for nucleic acid delivery” (Global Life Sciences Solutions Canada ULC, priority 2019, dated 2025).

Columns and labels:
[1] = system: C57BL/6 mice; experiment: In vivo delivery of OVA-encoded mRNA LNP via intramuscular administration, anti-OVA-IgG ELISA of serum; settings: 5 μg OVA mRNA i.m. on Day 1 and 10, serum 2 weeks post second immunization, versus 50 ug OVA protein, FIG. 10
Method: A lipid mixture of LM02b composition in ethanol was mixed with a low pH buffered solution of Ova mRNA at an N/P ratio of 8 using a NanoAssemblr® Ignite™ microfluidic mixer. The LNP were downstream processed using the Amicon™ ultra filtration technique and characterized for size, PDI and encapsulation efficiency. Size and PDI were measured using dynamic light scattering techniques, and nucleic acid encapsulation efficiency was calculated from a modified Quant-iT RiboGreen™ RNA assay. The hydrodynamic diameter of these mRNA-LNPs was ˜76 nm with a polydispersity index of 0.01 to 0.12 and an encapsulation efficiency of ˜95%
All animals were handled according to the Institutional Animal Care and Use Committee ethics protocols. For experiments, 6-8 week old C57BL/6 mice (n=4) were purchased from Envigo. […] Aliquots of serum samples were thawed and analyzed at appropriate dilutions for Ova expression and for IgG measurements using standard ELISA techniques.
Anti-OVA-IgG ELISA of serum samples: Sera from the immunized mice were collected at 2 weeks post second immunization. OVA—specific production of IgG in response to OVA-encoded mRNA in various LNPs were measured by ELISA as described supra. […] After 30 minutes of incubation, a stop solution of 2 N sulphuric acid was added and a plate reader was used to determine absorbance at 450 nm. […]

[2] = system: primary human T cells; experiment: CD19 CAR mRNA LNP expression in isolated primary human T cells; format: cell-based; settings: CT10, N/P 8, transfected T cells in vitro, FIG. 9
Method: FIG. 9 are two illustrations of CD19 CAR expression levels in isolated primary human T cells mediated by mRNA CT10 N/P 8 LNPs containing PNI 545, PNI 516, PNI132, PNI 542, PNI 565 incorporating CD19 CAR (chimeric antigen receptor) mRNA. Geometric mean fluorescence intensity of anti-CD19-PE fluorophore (top bar graph) and CD19 CAR positive T cell population (bottom histogram) were measured by flow cytometry 24 hours following LNP addition with 500 ng of encapsulated mRNA per 125,000 T cells 3 days after triple activation;
CD19 CAR expression in isolated primary human T cells mediated by mRNA-LNPs containing IL with CT10 composition at N/P 8 was assayed after in vitro exposure. The CAR vector pcDNA3.1 anti-CD19-h(BB Lambda)-EGFP-2nd-CAR (T7 Mut) 7661 bp was purchased from Creative BioLabs, NY, USA.
T cells were isolated from whole blood using a negative isolation procedure and T cell activation, and expansion was carried out by triple activation in ImmunoCult™ Human T Cell Expansion Media as described supra.

[3] = system: primary human T cells; experiment: EPO mRNA LNP delivery to primary human T cells, Quantikine IVD Human Epo ELISA; format: cell-based
Method: Reagents were acquired from Quantikine, Minneapolis, MN. The assay was performed as directed on the Quantikine® IVD® ELISA Human Erythropoietin Immunoassay protocol in the package insert. Briefly; primary human T cells were isolated from fresh whole blood using a negative selection protocol and activated using a triple activator. Seven days post-activation, T cells were dosed with mRNA LNPs encoding EPO at […] mRNA per 500,000 cells and N/P 10. After 48 h of exposure, the T cells were harvested and lysed for cytosolic EPO and media supernatant was sampled for secreted EPO. Quantikine® Human Serum Controls were used.

[4] = primary human T cells, 48 hours

CC/C=C\CC1C(CC(=O)OCC(COCCCCCCCC/C=C\C/C=C\CCCCC)OCCCCCCCC/C=C\C/C=C\CCCCC)CCC1OC(=O)C1(C)CCN(C)CC1 (centres unmarked) [PNI 123]
OVA-specific IgG response [1]: the same or higher IgG response as that of a 10 fold higher dose of OVA protein

CC/C=C\CC1C(CC(=O)OCCC(CCCCCCCC)OC(=O)C(CCCCCC)CCCCCCCC)CCC1OC(=O)C1(C)CCN(C)CC1 (centres unmarked) [PNI 565]
CD19 CAR expression [2]: greater than MC3 LNP

CC/C=C\CC1C(CC(=O)OCC(COCCCCCCCC/C=C\C/C=C\CCCCC)OCCCCCCCC/C=C\C/C=C\CCCCC)CCC1OC(=O)C1CCN(C)CC1 (centres unmarked) [PNI 132]
OVA-specific IgG response [1]: the same or higher IgG response as that of a 10 fold higher dose of OVA protein

CC/C=C\CC1C(CC(=O)OCC(COCCCCCCCC/C=C\C/C=C\CCCCC)OCCCCCCCC/C=C\C/C=C\CCCCC)CCC1OC(=O)CCCN(C)C (centres unmarked) [PNI 101]
cytosolic EPO ([3]; T cell lysate, 48 h exposure, N/P 10, FIG. 5): no cytosolic EPO
secreted EPO ([3]; media supernatant, 48 h exposure, N/P 10, FIG. 5): about 1016 mlU/mL
EPO expression mediated by LNPs versus MC3 [3, 4]: higher than those containing MC3
Fold increase in EPO concentration relative to MC3 [3, 4]: 1.87
EPO concentration (mIU/mL), 48 hours ([3]; primary human T cells, 48 hours, EPO mRNA LNP, N/P 10): 1016.0 mIU/mL
